Experimental data from PMC5786306, “An AKAP-Lbc-RhoA interaction inhibitor promotes the translocation of aquaporin-2 to the plasma membrane of renal collecting duct principal cells” (PLoS ONE, 2018).

Columns and labels:
[1] = biological target: T1, AKAP-Lbc/DHPH-induced RhoA activation (Homo sapiens, UniProt P61586); experiment: Guanine nucleotide exchange (GEF) assay with mant-GTP (screen and secondary assays); type: biochemical
T1 construct: AKAP-Lbc/DHPH (aa 1923–2336 of human AKAP-Lbc; NP_006729.4, NCBI); made in house; host or cells: E. coli Rosetta (DE3)
T1 sequence (P61586 whole entry, the tested form may be a part): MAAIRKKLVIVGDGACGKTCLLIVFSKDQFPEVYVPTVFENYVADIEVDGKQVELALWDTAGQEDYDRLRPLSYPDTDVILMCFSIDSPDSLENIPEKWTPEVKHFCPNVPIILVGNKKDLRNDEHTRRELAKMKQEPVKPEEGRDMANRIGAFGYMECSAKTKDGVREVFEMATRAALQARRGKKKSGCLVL
Procedure: Fluorescence was recorded for 15 min in a 384-well plate in a microplate reader (Tecan, Safire; Durham, US) at 440 nm (360 nm excitation wavelength).
For all dispensing and washing steps an EL406 washer/dispenser combination (BioTek Instruments, Bad Friedrichshall, Germany) was used. The screen was performed in a 384-well plate format. […] Z score describes the distance of a sample signal to the mean of all other samples on the plate in units of standard deviation. […] Compound identity and purity of samples used in this secondary screen were validated by mass spectrometric analysis.
The DHPH domain of the RhoA-specific guanine nucleotide exchange factor (GEF) AKAP-Lbc and RhoA were generated as recombinant proteins. The DHPH domain-catalyzed exchange of GDP for the fluorescent mant-GTP was monitored at the emission wavelength of RhoA-bound mant-GTP at 440 nm. (B) The fluorescence signal intensity changes were determined for all samples including positive and negative controls and percent inhibitions calculated based on the controls.

[2] = test system: Gα12- or Gαq-mediated RhoA activation in HEK293 cells; experiment: Rhotekin pulldown of active RhoA in HEK293 cells; type: cell-based, human; conditions: 50 μM
Procedure: (§1) (A) Full length AKAP-Lbc (AKAP13) and the indicated GEFs were transiently expressed in HEK293 cells. […] (B) Scaff10 inhibits Gα12- but not Gαq-mediated RhoA activation. The indicated Gα12 and Gαq-mutants were transiently co-expressed with AKAP-Lbc and p63RhoGEF in HEK293 cells as indicated. The cells were left untreated or incubated with Scaff10 (50 μM). The fraction of active RhoA was determined using Rhotekin pulldown assays. Shown is one representative out of three experiments. All GEF constructs were in pCMV3a and Myc-tagged (30 ng per transfection). Expression of AKAP-Lbc, LARG and PDZ-RhoGEF is shown in Fig 7 of the main manuscript. […] Lower panel: Corresponding values of fluorescence to upper panel. […] Lower panel: Corresponding values of fluorescence to upper panel. (B) F norm = normalised fluorescence (fluoresence steady state/fluorescence initial state) indicated in ‰. […] The viability of the indicated cells was determined using a CellTiter-Glo®Luminescent Cell Viability Assay (Promega, Wisconsin, USA) according to the manufacturer's instructions. The assay is based on the quantification of ATP as an indicator of metabolically active cells. […] Viability was assessed after 1 and 24 h incubation with Scaff10-8 in the indicated concentrations. An equal volume of CellTiter-Glo Reagent was added, plates were shaken and luminescence monitored over time with the plates held at 22°C. […]

[3] = test system: viability of cells; experiment: CellTiter-Glo luminescent cell viability assay (ATP); type: cell-based; conditions: up to 100 μM, 1 and 24 h
Procedure: as §1

[4] = test system: AQP2 localization and F-actin in primary IMCD cells; experiment: Immunofluorescence microscopy of AQP2 and F-actin in primary IMCD cells; type: cell-based, rat
From the text: Primary rat renal inner medullary collecting duct (IMCD) cells were obtained and cultured as previously described. AQP2 was detected with specific rabbit (H27 antibody) and secondary Cy3-coupled antibodies, and F-actin was visualized with Alexa Fluor 647-Phalloidin by laser scanning microscopy (LSM780; Zeiss Jena, Germany) as described.
Fig 8 Scaff10-8 promotes the redistribution of AQP2 to the plasma membrane of primary IMCD cells, which is independent of cAMP elevation and associated with depolymerization of F-actin. (A) Upper panel. IMCD cells were treated with DMSO (1%; control), the solvent of Scaff10-8, or forskolin (10 μM, 30 min) to stimulate cAMP synthesis. Lower panels: The cells were treated for 1 hour with Scaff10-8 (30 μM) alone (control) or with Scaff10-8 and forskolin. Forskolin (10 μM) was added for the final 30 min of Scaff10-8 incubation. AQP2 (green) was detected with specific primary and Cy3-coupled secondary antibodies, F-actin (red) with Alexa Fluor 647-Phalloidin and nuclei with DAPI (blue). Signals were visualized using a laser scanning microscope. Representative images are shown. n = 3. The magnified views were derived from the indicated boxes. (B) The signal intensities arising from intracellular and plasma membrane AQP2 were recorded, related to nuclear signal intensities, and the ratios of plasma membrane to intracellular fluorescence signal intensities were calculated (n = 30 cells per condition). Ratios > 1 indicate a predominant localization of AQP2 at the plasma membrane. Statistically significant differences were calculated using one-way ANOVA with posthoc Bonferroni. Mean ± SEM; *, p ≤ 0.05; *** p ≤ 0.001.

[5] = test system: MCD4 cells; experiment: Uptake into cells by mass spectrometry; type: in vitro ADME, mouse; conditions: data not shown

Row | SMILES | IC50 [1] | ResidualPercentActivity ([1]; Suppl. Tab. 2, screening data) | z_score ([1]; Suppl. Tab. 2, screening data) | RhoA activation by constitutively active G12 (G12QL) with AKAP-Lbc [2] | RhoA activation through constitutively active Gq (GqRC) [2] | viability of cells (ATP quantitation) [3] | effect on forskolin-induced redistribution of AQP2 ([4]; 30 μM, 1 h plus forskolin) | F-actin ([4]; Scaff10-8 30 μM alone, forskolin alone) | localization of AQP2 ([4]; Scaff10-8 30 μM, 1 h, no forskolin, forskolin 10 μM, 30 min) | effect of forskolin on F-actin ([4]; Scaff10-8 plus forskolin) | uptake into cells [5]
1 | COc1ccc(-c2coc3cc4oc(=O)c(C)c(C)c4cc23)cc1 [Scaff10, 3-(4-Methoxyphenyl)-5,6-dimethyl-furo[3,2-g]chromen-7-one] | 26 µM | -9.0% | -9.0 | abolished this activation | did not affect | – | – | – | – | – | –
2 | COc1ccc(-c2coc3cc4oc(=O)c(CCC(=O)O)c(C)c4cc23)cc1 [Scaff10-8, 3-[3-(4-Methoxyphenyl)-5-methyl-7-oxo-furo[3,2-g]chromen-6-yl] propanoic acid] | – | – | – | – | – | did not affect the viability | did not enhance the forskolin-induced redistribution | F-actin also decreased | caused the translocation of AQP2 to the plasma membrane | did not influence | confirmed the uptake
